Reference: patent US20230141863A1, “Small Molecule Inhibitors Targeting the Sodium Channel Tamoxifen Receptor and Uses Thereof” (Northwestern University, priority 2021, published 2023)

Test system: T1, endogenous voltage-gated sodium channels expressed in murine DRG neurons
T1 construct: other: waiting for 5 minutes after removal; ND-Tam potency against DRG INa (IC50); other: DRG neurons, −60 mV holding potential; other: 3 μM ND-Tam treatment; other: DR
Experiment: Whole cell voltage clamp of endogenous sodium currents (INa) in cultured DRG sensory neurons
Type: cell-based, mouse
Procedure: FIG. 1. Tamoxifen metabolites inhibit endogenous voltage-gated sodium channels expressed in murine DRG neurons. A) DIC and fluorescence images of voltage clamped DRG neuron isolated and cultured from an Nav1.8-tomato mouse. Continuity with the patched neuron is indicted by the GFP (Alexa Fluor 488 dye 1 nM) loaded into the glass patch electrode. B) Top, exemplar sodium currents (INa) recorded in control saline and two concentrations of N-desmethyl tamoxifen (ND-Tam) from a voltage-clamped DRG neuron. INa was activated by 0.2 Hz train of 50 ms depolarizations to −10 mV from −100 mV holding potential. Bottom, time course of peak INa inhibition during control conditions and after 5 minutes of extracellular ND-Tam treatment. C) Resulting drug concentration-INa inhibition relationship for ND-Tam fit to the Hill equation. Open symbols represent responses from individual cells and filled symbols represent average response per concentration. Error is equal to S.E.M. (n=11) D) A comparison of the percent INa recovery after 3-10 μM ND-Tam or 1 mM carbamazepine (CBZ) inhibition. INa recovery was assessed after 5 minutes in control saline post drug exposure. Fewer INa recovered from ND-Tam exposure compared to CBZ exposure, 14.3±5.4% and 47.2±9.6%, respectively, and was statistically significant (P=0.03). Error is equal to S.E.M. and the number of cells tested per treatment group is indicated within the parentheses.
Previously, a unique receptor site for tamoxifen analogues within the prokaryotic sodium channel isolated form Magnetococcus marinus (NavMs)^36 (Sula et al) was crystallographically identified. Because drug occupancy of this receptor caused long lasting inhibition of the NavMs INa, the inventors wondered if these properties would translate into effects against sensory neuron Na s which transmit pain signals. Accordingly, =the potency of ND-Tam and 4OH-Tam was tested against endogenously expressed Na s in cultured DRG sensory neurons isolated from Nav1.8-tdTomato mice by conducting whole cell voltage clamp recordings (FIG. 1A, B). Sodium currents were activated by a 0.2 Hz train of −10 mV depolarizations from a holding potential of −100 mV. The externally applied drug effect was determined after three to five minutes of application of each drug concentration (FIG. 1B). […] As discussed in the introduction, total DRG INa is conducted by the Nav1.1, Nav1.6, Nav1.7, Nav1.8 and Nav1.9 subtypes. To determine if there is any specificity in the potency of tamoxifen analogues against Nav subtypes, human orthologues were heterologously expressed in cell lines (HEK and CHO co-expressing hb1 subunits), and conducted voltage-clamp experiments, as previously performed in the DRG neurons.
Dorsal root ganglia were isolated using a modified version of the previously described protocol (PMID: 26864470). All animal procedures were approved by the Institutional Animal Care and Use Committee at the Feinberg Medical School, Northwestern University. The spinal columns of 4-6-week-old […] or Nav1.8-Tomato mice (Nav1.8-Td) were removed and DRG neurons from all spinal levels were isolated for primary culture (PMID: 33827672, PMID: 31351964). The collected DRGs, containing both neuronal and non-neuronal cells, were acutely dissociated in DMEM with collagenase IV (2 mg/mL) for 30 minutes, followed by papain (25 U/mL) for 30 minutes. The cells were then triturated, filtered through a 40 μm cell strainer to remove non-dissociated cells, and washed with DMEM. The DRGs were resuspended in 70 μL of pre-warmed growth medium (DMEM F12+Glutamax supplemented with 0.5% FBS, 0.5% penicillin/streptomycin, 1% N-2 supplement, and β-NGF ([…]) added on the day of use) and plated on poly-l-lysine (10 mg/mL) and laminin (25 μg/mL) prepared coverslips. The DRGs were incubated at 37° C. for 2-4 hours before more growth medium was added to the wells. […]

IC50 (DRG neurons, −100 mV holding potential, 0.2 Hz train of −10 mV depolarizations, read-out: half maximal potency of INa inhibition (IC50)): 1700 nM
SMILES: CC/C(=C(\c1ccccc1)c1ccc(OCCNC)cc1)c1ccccc1 [ND-Tam, 2-[4-[(Z)-1,2-diphenylbut-1-enyl]phenoxy]-N-methylethanamine]
block of the total INa (3 μM ND-Tam treatment): ≈ 45% | change in the half-maximal activation of conductance (GV1/2) (3 μM ND-Tam treatment): No change | voltage-dependence of inactivation (V1/2) after drug treatment (ND-Tam (3 μM), control −47.6±0.4 mV): −51.9±0.4 mV | half-maximal conductance-voltage relationship (V1/2) (ND-Tam conditions (3 μM), control −38.3±0.3 mV): −37.7±0.4 mV | shift in voltage dependence of inactivation (after 3 μM ND-Tam treatment, P=0.01): −8 mV | inhibition of sodium currents recorded from DRG neurons (in words) (tamoxifen analogs and fragments, FIG. 7B): inhibited sodium currents | INa that did not recover after removing drug from the bath (waiting for 5 minutes after removal): 86±5% | increase in potency when neuron membranes were held at more depolarizing potentials (−40, −60 and −100 mV holding potentials): 15-44 ×
